From patent US20060063736A1, “Compositions and methods for inhibiting mucin-type O-linked glycosylation” (priority 2004, published 2006)
“And” between values parts separate entries of the source, which are not always exact repeats. Identical values can stand only once. Each block holds one molecule with its values, some of them ahead of it. No end group written: not given here.

What was measured:
mppGalNAcT-1 = biological target: T1, mppGalNAcT-1 (Mus musculus, UniProt O08912); test: ELLA for ppGalNAcTs, mppGalNAcT-1; format: biochemical, murine; details: mppGalNAcT-1, ELLA validation
T1 construct: plasmids encoding truncated secreted ppGalNAcTs-1 to −5, -7, -10 and -11; made in house; host or cells: COS-7
T1 sequence (O08912 29-559 limits assumed): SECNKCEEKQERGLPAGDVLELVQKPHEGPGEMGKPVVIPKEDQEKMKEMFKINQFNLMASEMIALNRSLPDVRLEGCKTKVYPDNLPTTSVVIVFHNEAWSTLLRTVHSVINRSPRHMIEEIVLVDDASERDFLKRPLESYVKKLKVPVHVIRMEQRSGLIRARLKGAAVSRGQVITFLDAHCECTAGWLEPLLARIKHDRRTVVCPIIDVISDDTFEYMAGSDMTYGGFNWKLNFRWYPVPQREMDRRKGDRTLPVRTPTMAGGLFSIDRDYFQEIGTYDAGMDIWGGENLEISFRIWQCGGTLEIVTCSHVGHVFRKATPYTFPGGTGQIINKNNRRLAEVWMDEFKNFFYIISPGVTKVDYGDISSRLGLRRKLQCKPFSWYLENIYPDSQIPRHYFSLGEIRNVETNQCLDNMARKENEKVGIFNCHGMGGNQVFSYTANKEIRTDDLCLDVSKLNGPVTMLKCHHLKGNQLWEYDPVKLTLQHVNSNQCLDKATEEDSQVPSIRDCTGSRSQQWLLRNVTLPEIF
Method: COS-7 cells were transiently transfected with plasmids encoding truncated secreted ppGalNAcTs-1 to −5, -7, -10 and -11 as previously described. Hagen et al. (1997) J. Biol. Chem. 272:13843-13848. The crude conditioned medium was used as the enzyme source.
Standard reaction conditions for ppGalNAcT assays were as follows. The reaction mixture contained the following components in a final volume of 25 μL: 10 mM MnCl2, 40 mM sodium cacodylate, 40 mM β-mercaptoethanol, 0.1% Triton X-100, pH 6.5, 5 μL of conditioned media, and various concentrations of EA2 peptide 4, UDP-GalNAc and inhibitor. All uridine-based compounds were dissolved in dimethyl sulfoxide (DMSO). The concentration of DMSO in the reaction mixture was limited to 2% (v/v), as higher concentrations decreased ppGalNAcT activity. For inhibitor assays, reaction mixtures for positive controls also contained 2% DMSO. Unless otherwise stated, inhibitor assays were performed using 20 μM UDP-GalNAc and 50 μM EA2 peptide 4, the KM values for both substrates. Reactions were incubated at 37° C. and were terminated by the addition of 10 μL of 0.1 M EDTA. All experiments were performed in duplicate. Reaction rates were linear over the period monitored (20-30 min).
96-Well NeutrAvidin-coated plates were prewashed 3 times with 200 μL of wash buffer (25 mM Tris, 150 mM NaCl, 0.1% bovine serum albumin (BSA) (w/v), and 0.05% Tween (v/v), pH 7.2). Reactions were then transferred to the 96-well plates, incubated for 1 hour at room temperature (rt) and subsequently washed 3 times with 200 μL of phosphate-buffered saline (PBS) containing 0.5% BSA and 0.05% Tween, pH 7.1. A 100-μL solution of HPA-HRP in standard PBS buffer (1 μg/mL, pH 7.4) was added and the reaction was incubated for 1 h at rt. After 3 washes with 200 μL of PBS, bound HPA-HRP was quantified by the addition of 100 μL of TMB peroxide solution. The solutions were incubated for 5-15 min in the dark at rt. HRP activity was terminated by the addition of 50 μL of 2 N H2SO4 and the resulting solution was analyzed at 450 nm using a UV/Vis microtiter plate reader. The amount of product generated by the ppGalNAcT was extrapolated from absorbance values using an equation fit to the standard curve derived from Origin 6.1 software.
In order to screen the library in high-throughput format, a non-radioactive enzyme linked lectin assay (ELLA) for ppGalNAcTs was developed. As an acceptor substrate, the EA2 peptide (PTTDSTTPAPTTK; SEQ ID NO:12), a fragment of rat submandibular mucin, was chosen. Albone et al. (1994) J. Biol. Chem. 269:16845-16852. This peptide has been previously shown to be an efficient substrate for murine (m) ppGalNAcT-1 and is preferentially glycosylated at the fourth Thr residue from the N-terminus (underlined). Ten Hagen et al. (2001, supra). Biotinylation of EA2 allowed capture of (glyco)peptides onto 96-well NeutrAvidin-coated plates. The GalNAc-modified glycopeptide product could be detected using the α-GalNAc-specific lectin Helix pomatia agglutinin (HPA) (Hammarstrom et al. (1977) Biochemistry 16:2750-2755) conjugated to horseradish peroxidase (HRP). The bound HRP was quantified by addition of a chromogenic substrate.

Jurkat cells [1] = test: Annexin-V staining of Jurkat cells (apoptosis); format: cell-based, human; details: 2 d treatment
Method: (§1) Jurkat cells were seeded at 250,000 cells/well (determined by Coulter cell counter) in 12-well polystyrene tissue culture plates in 1.0 mL of media and treated with various concentrations of 1-68A or 2-68A from 50 mM dimethyl sulfoxide (DMSO) stock solutions or doxorubicin or campothecin from 1 mM DMSO stock solutions. After 2 d, cells were harvested, washed twice with PBS buffer (PBS, pH 7.4, 0.1% FCS, 0.1% NaN3 w/v) and stained with FITC-HPA (1 μg/mL) or FITC-Con A (5 μg/mL with 1 mM CaCl2) in PBS, pH 7.4 in the dark for 1 h at 4° C. Cells were washed twice with PBS buffer, resuspended in 300 μL of PBS buffer and analyzed by flow cytometry (FacsCaliber, BD Instruments). Annexin-V staining was performed according to the manufacturer's protocols (Invitrogen).
(§2) To directly monitor ppGalNAcT activities in cells, Jurkat cells (human T-cell lymphoma), which are known to produce only the Tn-antigen (FIG. 1) as their O-linked glycans, were chosen. Piller et al. (1990) J. Biol. Chem. 265:9264-9271. Changes in Tn-antigen expression on the surface of Jurkat cells were monitored by HPA binding followed by flow cytometry analysis. Con A staining of N-linked glycans was used as a control for non-specific inhibition of protein glycosylation. Baenziger and Fiete (1979) J. Biol. Chem. 254:2400-2407.

Jurkat cells [2] = test: Con A staining of N-linked glycans on Jurkat cells, flow cytometry; format: cell-based, human; details: 2 d treatment
Method: as §1, §2

Jurkat cells [3] = test: HPA staining of Jurkat cells (Tn-antigen), flow cytometry; format: cell-based, human; details: Jurkat cells, 2 d treatment
Method: as §1, §2

[4] = biological target: C-terminal biotinylated EA2* glycopeptide 5 (…; SEQ ID NO:17) (rat); test: enzyme-linked lectin assay (ELLA): 15% glycopeptide 5 (9 pmol) on NeutrAvidin plates, detected with HPA-HRP
[5] = biological target: T2, C-terminal biotinylated EA2 peptide 4 (PTTKDSTTPAPTTKK; SEQ ID NO:16)
T2 chain: PTTKDSTTPAPTTKK

Ki (mppGalNAcT-1; read-out: KI value for the product UDP): 251 µM and 250 µM
Molecule: O=c1ccn([C@@H]2O[C@H](COP(=O)(O)OP(=O)(O)O)[C@@H](O)[C@H]2O)c(=O)[nH]1 [UDP, reference compound]

Molecule: CC[C@@]1(O)C(=O)OCc2c1cc1n(c2=O)Cc2cc3ccccc3nc2-1 [campothecin, reference compound]
Annexin-V staining (induction of apoptosis) (Jurkat cells [1]): induced Annexin V binding at levels comparable to 1-68A
effect on Con A staining (Jurkat cells [2]): reduced
effect on HPA staining (Jurkat cells [3]): reduced

Molecule: COc1cccc2c1C(=O)c1c(O)c3c(c(O)c1C2=O)C[C@@](O)(C(=O)CO)C[C@@H]3O[C@H]1C[C@H](N)[C@H](O)[C@H](C)O1 [doxorubicin, reference compound]
Annexin-V staining (induction of apoptosis) (Jurkat cells [1]): induced Annexin V binding at levels comparable to 1-68A
effect on Con A staining (Jurkat cells [2]): reduced
effect on HPA staining (Jurkat cells [3]): reduced

Km (mppGalNAcT-1): 48 ± 4 µM
Molecule: EA2 peptide 4: C-terminal biotinylated EA2 peptide (PTTKDSTTPAPTTKK; SEQ ID NO:16), fragment of rat submandibular mucin, acceptor substrate (PTTKDSTTPAPTTKK-biotin) [reference compound]

signal to noise ratio (fold above background) [4]: 30
Molecule: Helix pomatia agglutinin (HPA) conjugated to horse radish peroxidase (HPA-HRP)

Molecule: uridine diphosphate N-acetyl-α-galactosamine [UDP-GalNAc, reference compound]
Km (mppGalNAcT-1): 13.9 µM and 14 µM

B1: murine polypeptide N-acetyl-α-galactosaminyltransferase-1 (mppGalNAcT-1) (protein)
chain: GLPAGDVLELVQKPHEGPGEMGKPVVIPKEDQEKMKEMFKINQFNLMASEMIALNRSLPDVRLEGCKTKVYPDNLPTTSVVIVFHNEAWSTLLRTVHSVINRSPRHMIEEIVLVDDASERDFLKRPLESYVKKLKVPVHVIRMEQRSGLIRARLKGAAVSRGQVITFLDAHCECTAGWLEPLLARIKHDRRTVVCPIIDVISDDTFEYMAGSDMTYGGFNWKLNFRWYPVPQREMDRRKGDRTLPVRTPTMAGGLFSIDRDYFQEIGTYDAGMDIWGGENLEISFRIWQCGGTLEIVTCSHVGHVFRKATPYTFPGGTGQIINKNNRRLAEVWMDEFKNFFYIISPGVTKVDYGDISSRLGLRRKLQCKPFSWYLENIYPDSQIPRHYFSLGEIRNVETNQCLDNMARKENEKVGIFNCHGMGGNQVFSYTANKEIRTDDLCLDVSKLNGPVTMLKCHHLKGNQLWEYDPVKLTLQHVNSNQCLDKATEEDSQVPSIRDCTGSRSQQWLLRNVTLPEIF
KM (ELLA enzyme kinetics) [5]: 48.0 ± 4.0 µM
